Literature values as cited in patent US10369157B1 (priority 2018, dated 2019).

Columns and labels:
[1] = test system: adrenergic alpha-2 receptors
rats = settings: rat, in vivo

Clc1cccc(Cl)c1NC1=NCCN1 [Clonidine, N-(2,6-dichlorophenyl)-4,5-dihydro-1H-imidazol-2-amine]
Absorption by the human body (in vivo): well absorbed
Effect on pulse rate in treated patients (patients; most patients): decrease in pulse rate

Cc1cccc([C@H](C)c2cnc[nH]2)c1C [Dexmedotomidine, 5-[(1S)-1-(2,3-dimethylphenyl)ethyl]-1H-imidazole]
Affinity towards adrenergic alpha-2 receptors compared with Clonidine [1]: increased affinity

CNC1(c2ccccc2Cl)CCCCC1=O (centres unmarked) [Ketamine, 2-(2-chlorophenyl)-2-(methylamino)cyclohexan-1-one]
Dose recovered through excreted feces (studies in humans): approximately 3%
Dose recovered through urine (studies in humans): approximately 91%
Clinical effects observed on patients following administration (patients; human, in vivo): increased blood pressure, increased muscle tone (may resemble catatonia), opening of the eyes (usually accompanied by nystagmus), and increased myocardial oxygen consumption

Cc1ncc2n1-c1ccc(Cl)cc1C(c1ccccc1F)=NC2 [Midazolam, 8-chloro-6-(2-fluorophenyl)-1-methyl-4H-imidazo[1,5-a][1,4]benzodiazepine]
Passage through the placenta into fetal circulation (humans): slowly pass through the placenta
Presence in human milk (humans): small amounts

OCc1ncc2n1-c1ccc(Cl)cc1C(c1ccccc1F)=NC2 [alpha-hydroxymidazolam]
Elimination half-life (metabolite): < 1 h
Plasma concentrations relative to the parent compound (metabolite of the sleep inducing agent): approximately 12%
Contribution to the effects of the sleep inducing agent (patients; intravenous administration): approximately 10%

CN1CC[C@]23c4c5ccc(O)c4O[C@H]2[C@@H](O)C=C[C@H]3[C@H]1C5 [morphine]
Minimum ratio of DL50 to DE50 (rats): 69.5

Oc1cc(Cl)c(NC2=NCCN2)c(Cl)c1 [p-hydroxyclonidine]
Pharmacological activity of the major metabolite (patients; human, in vivo): pharmacologically inactive

CCOC(=O)C1(c2ccccc2)CCN(C)CC1 [pethidine]
Minimum ratio of DL50 to DE50 (rats): 4.6
